Measurements published in patent US20250154135A1, “M-CHOLINE RECEPTOR AGONIST COMPOUND, PREPARATION METHOD THEREFOR AND USE THEREOF” (NANJING GRITPHARMA CO., LTD., priority 2022, published 2025).
Values joined by “and” are separate entries in the source; they are usually repeats but may differ in a detail not shown here. Equal values may be shown once.

Tests used:
rabbit pupil = assay: Rabbit pupil diameter change, pilocarpine p-toluate at different concentrations (Test Example 3); assay type: in vivo
Procedure: Under the condition of normal saline, the onset time, strength of effect, duration of effect, and irritation of 1.25% pilocarpine hydrochloride and different concentrations (0.88%, 1.75%, 3.50%) of pilocarpine p-toluate were tested.
Each rabbit was subjected to eye drop administration in the left eye (using a pipette), with an administration volume of 100 μL.
Number of animals: 6 rabbits per compound.
Administration schedule: single administration.
• the pupil diameter of the left eye of the rabbits was measured at time points of −0.5 h (i.e., half an hour before administration), 5 min, 10 min, 15 min, 0.5 h, 3 h and 4 h relative to administration, with the measurement performed 3 times for each rabbit at each time point.

rabbit eyes = assay: Irritation to rabbit eyes (Test Example 3); assay type: in vivo; settings: 0.88% compared with 3.50%
Source text: Irritation: examined concurrently with the pupil diameter.
The numerical results of pupil changes are shown in Tables 3-1 to 3-4, and the changes in eye irritation phenomenon are shown in FIGS. 13 and 14.

Compound: CC[C@@H]1C(=O)OC[C@@H]1Cc1cncn1C [JQ-6, Pilocarpine p-toluate]
- strength of effect at each time point compared to 1.25% pilocarpine hydrochloride (rabbit pupil; 0.88% (half molar concentration of pilocarpine)): demonstrated increased strength of effect at each time point
- Percentage change in pupil diameter (rabbit pupil; 0.88%, 5 min, average of 6 rabbits): −10.07%
- Percentage change in pupil diameter (rabbit pupil; 0.88%, 5 min, individual rabbit): −4.80% and −6.70% and −13.54% and −9.41% and −12.03% and −13.93%
- Percentage change in pupil diameter (rabbit pupil; 0.88%, 10 min, average of 6 rabbits): −36.21%
- Percentage change in pupil diameter (rabbit pupil; 0.88%, 10 min, individual rabbit): −33.75% and −34.62% and −30.54% and −48.90% and −41.07% and −28.39%
- Percentage change in pupil diameter (rabbit pupil; 0.88%, 15 min, average of 6 rabbits): −40.86%
- Percentage change in pupil diameter (rabbit pupil; 0.88%, 15 min, individual rabbit): −43.40% and −41.17% and −36.73% and −43.68% and −50.07% and −30.13%
- Percentage change in pupil diameter (rabbit pupil; 0.88%, 0.5 h, average of 6 rabbits): −37.44%
- Percentage change in pupil diameter (rabbit pupil; 0.88%, 0.5 h, individual rabbit): −36.60% and −41.12% and −36.25% and −37.28% and −44.65% and −28.71%
- Percentage change in pupil diameter (rabbit pupil; 0.88%, 3 h, average of 6 rabbits): −10.34%
- Percentage change in pupil diameter (rabbit pupil; 0.88%, 3 h, individual rabbit): −9.65% and −14.66% and −12.43% and −7.91% and −14.57% and −2.85%
- Percentage change in pupil diameter (rabbit pupil; 0.88%, 4 h, average of 6 rabbits): 0.70%
- Percentage change in pupil diameter (rabbit pupil; 0.88%, 4 h, individual rabbit): 3.67% and −2.65% and 4.83% and −0.54% and −1.39% and 0.26%
- strength of effect at each time point compared to 1.25% pilocarpine hydrochloride (rabbit pupil; 1.75% (same molar concentration of pilocarpine)): the increase in strength of effect at each time point was more significant
- Percentage change in pupil diameter (rabbit pupil; 1.75%, 5 min, individual rabbit): −18.36% and −12.49% and −14.04%
- Percentage change in pupil diameter (rabbit pupil; 1.75%, 10 min, individual rabbit): −44.23% and −37.19% and −44.10%
- Percentage change in pupil diameter (rabbit pupil; 1.75%, 15 min, individual rabbit): −49.50% and −43.41% and −45.41%
- Percentage change in pupil diameter (rabbit pupil; 1.75%, 0.5 h, individual rabbit): −47.81% and −42.82% and −44.78%
- Percentage change in pupil diameter (rabbit pupil; 1.75%, 3 h, individual rabbit): −12.34% and −6.91%
- Percentage change in pupil diameter (rabbit pupil; 1.75%, 4 h, individual rabbit): −0.45% and −0.05%
- strength of effect at each time point compared to 1.25% pilocarpine hydrochloride (rabbit pupil; 3.50% (2 times molar concentration of pilocarpine)): significantly enhanced
- irritation to rabbit eyes (rabbit eyes): significantly lower than that caused by the 3.50% pilocarpine p-toluate
